Columns and labels:
Lung [1] = assay: Biodistribution in S180 tumor-bearing mouse lungs at 8 to 10 uCi, iv after 5 mins by gamma counting; assay type: ADME, organism-based; details: in vivo
Nucleic Acid [2] = assay: Ratio of drug level in tumor to muscle in S180 tumor-bearing mouse at 8 to 10 uCi, iv at 5 mins by gamma counting; assay type: ADME, organism-based; details: in vivo
Nucleic Acid [3] = assay: Ratio of drug level in tumor to brain in S180 tumor-bearing mouse at 8 to 10 uCi, iv at 60 mins by gamma counting; assay type: ADME, organism-based; details: in vivo, 1 h
Muscle tissue [4] = assay: Biodistribution in S180 tumor-bearing mouse muscle at 8 to 10 uCi, iv after 120 mins by gamma counting; assay type: ADME, organism-based; details: in vivo, 2 h
Liver [5] = assay: Biodistribution in S180 tumor-bearing mouse liver at 8 to 10 uCi, iv after 30 mins by gamma counting; assay type: ADME, organism-based; details: in vivo, 0.5 h
Lung [6] = assay: Biodistribution in S180 tumor-bearing mouse lung at 8 to 10 uCi, iv after 30 mins by gamma counting; assay type: ADME, organism-based; details: in vivo, 0.5 h
Brain [7] = assay: Biodistribution in S180 tumor-bearing mouse brain at 8 to 10 uCi, iv after 5 mins by gamma counting; assay type: ADME, organism-based; details: in vivo
Nucleic Acid [8] = assay: Ratio of drug level in tumor to blood in S180 tumor-bearing mouse at 8 to 10 uCi, iv at 30 mins by gamma counting; assay type: ADME, organism-based; details: tumour, 0.5 h
Brain [9] = assay: Biodistribution in S180 tumor-bearing mouse brain at 8 to 10 uCi, iv after 30 mins by gamma counting; assay type: ADME, organism-based; details: in vivo, 0.5 h
Heart [10] = assay: Biodistribution in S180 tumor-bearing mouse heart at 8 to 10 uCi, iv after 60 mins by gamma counting; assay type: ADME, organism-based; details: in vivo, 1 h
Nucleic Acid [11] = assay: Ratio of drug level in tumor to brain in S180 tumor-bearing mouse at 8 to 10 uCi, iv at 30 mins by gamma counting; assay type: ADME, organism-based; details: in vivo, 0.5 h
[12] = Chemical stability in PBS after 2 hrs by radio-HPLC analysis at room temperature; assay type: physicochemical; details: buffer
Mus musculus [13] = assay: Biodistribution in S180 cells xenografted in mouse tumor at 8 to 10 uCi, iv after 120 mins by gamma counting; assay type: ADME, organism-based, Neoplasm, CCRF S-180; details: in vivo, 2 h
Blood [14] = assay: Biodistribution in S180 tumor-bearing mouse blood at 8 to 10 uCi, iv after 5 mins by gamma counting; assay type: ADME, organism-based; details: in vivo
Spleen [15] = assay: Biodistribution in S180 tumor-bearing mouse spleen at 8 to 10 uCi, iv after 60 mins by gamma counting; assay type: ADME, organism-based; details: in vivo, 1 h
Liver [16] = assay: Biodistribution in S180 tumor-bearing mouse liver at 8 to 10 uCi, iv after 5 mins by gamma counting; assay type: ADME, organism-based; details: in vivo
Heart [17] = assay: Biodistribution in S180 tumor-bearing mouse heart at 8 to 10 uCi, iv after 5 mins by gamma counting; assay type: ADME, organism-based; details: in vivo
Nucleic Acid [18] = assay: Ratio of drug level in tumor to brain in S180 tumor-bearing mouse at 8 to 10 uCi, iv at 5 mins by gamma counting; assay type: ADME, organism-based; details: in vivo
Blood [19] = assay: Biodistribution in S180 tumor-bearing mouse blood at 8 to 10 uCi, iv after 60 mins by gamma counting; assay type: ADME, organism-based; details: in vivo, 1 h
Nucleic Acid [20] = assay: Ratio of drug level in tumor to muscle in S180 tumor-bearing mouse at 8 to 10 uCi, iv at 30 mins by gamma counting; assay type: ADME, organism-based; details: in vivo, 0.5 h
Mus musculus [21] = assay: Biodistribution in S180 cells xenografted in mouse tumor at 8 to 10 uCi, iv after 30 mins by gamma counting; assay type: ADME, organism-based, Neoplasm, CCRF S-180; details: in vivo, 0.5 h
Nucleic Acid [22] = assay: Ratio of drug level in tumor to brain in S180 tumor-bearing mouse at 8 to 10 uCi, iv at 120 mins by gamma counting; assay type: ADME, organism-based; details: in vivo, 2 h
Stomach [23] = assay: Biodistribution in S180 tumor-bearing mouse stomach at 8 to 10 uCi, iv after 5 mins by gamma counting; assay type: ADME, organism-based; details: in vivo
Lung [24] = assay: Biodistribution in S180 tumor-bearing mouse lung at 8 to 10 uCi, iv after 120 mins by gamma counting; assay type: ADME, organism-based; details: in vivo, 2 h
Blood [25] = assay: Biodistribution in S180 tumor-bearing mouse blood at 8 to 10 uCi, iv after 30 mins by gamma counting; assay type: ADME, organism-based; details: in vivo, 0.5 h
Heart [26] = assay: Biodistribution in S180 tumor-bearing mouse heart at 8 to 10 uCi, iv after 30 mins by gamma counting; assay type: ADME, organism-based; details: in vivo, 0.5 h
Muscle tissue [27] = assay: Biodistribution in S180 tumor-bearing mouse muscle at 8 to 10 uCi, iv after 60 mins by gamma counting; assay type: ADME, organism-based; details: in vivo, 1 h
Spleen [28] = assay: Biodistribution in S180 tumor-bearing mouse spleen at 8 to 10 uCi, iv after 30 mins by gamma counting; assay type: ADME, organism-based; details: in vivo, 0.5 h
Lung [29] = assay: Biodistribution in S180 tumor-bearing mouse lung at 8 to 10 uCi, iv after 60 mins by gamma counting; assay type: ADME, organism-based; details: in vivo, 1 h
Muscle tissue [30] = assay: Biodistribution in S180 tumor-bearing mouse muscle at 8 to 10 uCi, iv after 30 mins by gamma counting; assay type: ADME, organism-based; details: in vivo, 0.5 h
Nucleic Acid [31] = assay: Ratio of drug level in tumor to blood in S180 tumor-bearing mouse at 8 to 10 uCi, iv at 60 mins by gamma counting; assay type: ADME, organism-based; details: tumour, 1 h
Nucleic Acid [32] = assay: Ratio of drug level in tumor to blood in S180 tumor-bearing mouse at 8 to 10 uCi, iv at 120 mins by gamma counting; assay type: ADME, organism-based; details: tumour, 2 h
Stomach [33] = assay: Biodistribution in S180 tumor-bearing mouse stomach at 8 to 10 uCi, iv after 120 mins by gamma counting; assay type: ADME, organism-based; details: in vivo, 2 h
Kidney [34] = assay: Biodistribution in S180 tumor-bearing mouse kidney at 8 to 10 uCi, iv after 120 mins by gamma counting; assay type: ADME, organism-based; details: in vivo, 2 h
Kidney [35] = assay: Biodistribution in S180 tumor-bearing mouse kidney at 8 to 10 uCi, iv after 30 mins by gamma counting; assay type: ADME, organism-based; details: in vivo, 0.5 h
Mus musculus [36] = assay: Biodistribution in S180 cells xenografted in mouse tumor at 8 to 10 uCi, iv after 5 mins by gamma counting; assay type: ADME, organism-based, Neoplasm, CCRF S-180; details: in vivo
Heart [37] = assay: Biodistribution in S180 tumor-bearing mouse heart at 8 to 10 uCi, iv after 120 mins by gamma counting; assay type: ADME, organism-based; details: in vivo, 2 h
Kidney [38] = assay: Biodistribution in S180 tumor-bearing mouse kidney at 8 to 10 uCi, iv after 60 mins by gamma counting; assay type: ADME, organism-based; details: in vivo, 1 h
Blood [39] = assay: Biodistribution in S180 tumor-bearing mouse blood at 8 to 10 uCi, iv after 120 mins by gamma counting; assay type: ADME, organism-based; details: in vivo, 2 h
Stomach [40] = assay: Biodistribution in S180 tumor-bearing mouse stomach at 8 to 10 uCi, iv after 30 mins by gamma counting; assay type: ADME, organism-based; details: in vivo, 0.5 h
Stomach [41] = assay: Biodistribution in S180 tumor-bearing mouse stomach at 8 to 10 uCi, iv after 60 mins by gamma counting; assay type: ADME, organism-based; details: in vivo, 1 h
[42] = Chemical stability in PBS after 2 hrs by radio-HPLC analysis at 60 degC; assay type: physicochemical; details: buffer
Spleen [43] = assay: Biodistribution in S180 tumor-bearing mouse spleen at 8 to 10 uCi, iv after 120 mins by gamma counting; assay type: ADME, organism-based; details: in vivo, 2 h
Spleen [44] = assay: Biodistribution in S180 tumor-bearing mouse spleen at 8 to 10 uCi, iv after 5 mins by gamma counting; assay type: ADME, organism-based; details: in vivo
Nucleic Acid [45] = assay: Ratio of drug level in tumor to muscle in S180 tumor-bearing mouse at 8 to 10 uCi, iv at 120 mins by gamma counting; assay type: ADME, organism-based; details: in vivo, 2 h
Muscle tissue [46] = assay: Biodistribution in S180 tumor-bearing mouse muscle at 8 to 10 uCi, iv after 5 mins by gamma counting; assay type: ADME, organism-based; details: in vivo
Brain [47] = assay: Biodistribution in S180 tumor-bearing mouse brain at 8 to 10 uCi, iv after 120 mins by gamma counting; assay type: ADME, organism-based; details: in vivo, 2 h
Kidney [48] = assay: Biodistribution in S180 tumor-bearing mouse kidneys at 8 to 10 uCi, iv after 5 mins by gamma counting; assay type: ADME, organism-based; details: in vivo
Nucleic Acid [49] = assay: Ratio of drug level in tumor to muscle in S180 tumor-bearing mouse at 8 to 10 uCi, iv at 60 mins by gamma counting; assay type: ADME, organism-based; details: in vivo, 1 h
Plasma = assay: Metabolic stability in mouse plasma after 2 hrs by radio-HPLC analysis; assay type: ADME, cell-free
[50] = n-octanol-PBS partition coefficient, logP of the compound; assay type: physicochemical
Mus musculus [51] = assay: Biodistribution in S180 cells xenografted in mouse tumor at 8 to 10 uCi, iv after 60 mins by gamma counting; assay type: ADME, organism-based, Neoplasm, CCRF S-180; details: in vivo, 1 h
Liver [52] = assay: Biodistribution in S180 tumor-bearing mouse liver at 8 to 10 uCi, iv after 120 mins by gamma counting; assay type: ADME, organism-based; details: in vivo, 2 h
Brain [53] = assay: Biodistribution in S180 tumor-bearing mouse brain at 8 to 10 uCi, iv after 60 mins by gamma counting; assay type: ADME, organism-based; details: in vivo, 1 h
Liver [54] = assay: Biodistribution in S180 tumor-bearing mouse liver at 8 to 10 uCi, iv after 60 mins by gamma counting; assay type: ADME, organism-based; details: in vivo, 1 h
Nucleic Acid [55] = assay: Ratio of drug level in tumor to blood in S180 tumor-bearing mouse at 8 to 10 uCi, iv at 5 mins by gamma counting; assay type: ADME, organism-based; details: tumour

COc1cc2ncnc(Nc3ccc(F)c(Cl)c3)c2cc1OCC[18F]
Drug uptake (Lung [1]): 4.6 % ID/g | Ratio (Nucleic Acid [2]): 0.37 | Ratio (Nucleic Acid [3]): 1.87 | Drug uptake (Muscle tissue [4]): 1.74 % ID/g | Drug uptake (Liver [5]): 5.38 % ID/g | Drug uptake (Lung [6]): 4.57 % ID/g | Drug uptake (Brain [7]): 1.97 % ID/g | Ratio (Nucleic Acid [8]): 0.99 | Drug uptake (Brain [9]): 3.15 % ID/g | Drug uptake (Heart [10]): 4.26 % ID/g | Ratio (Nucleic Acid [11]): 1.84 | Stability [12]: Stable | Drug uptake (Mus musculus [13]): 4.71 % ID/g | Drug uptake (Blood [14]): 7 % ID/g | Drug uptake (Spleen [15]): 3.23 % ID/g | Drug uptake (Liver [16]): 11.34 % ID/g | Drug uptake (Heart [17]): 4.4 % ID/g | Ratio (Nucleic Acid [18]): 0.95 | Drug uptake (Blood [19]): 5.07 % ID/g | Ratio (Nucleic Acid [20]): 1.39 | Drug uptake (Mus musculus [21]): 5.8 % ID/g | Ratio (Nucleic Acid [22]): 2.38 | Drug uptake (Stomach [23]): 5.35 % ID/g | Drug uptake (Lung [24]): 2.57 % ID/g | Drug uptake (Blood [25]): 5.85 % ID/g | Drug uptake (Heart [26]): 5.02 % ID/g | Drug uptake (Muscle tissue [27]): 3.35 % ID/g | Drug uptake (Spleen [28]): 3.67 % ID/g | Drug uptake (Lung [29]): 3.75 % ID/g | Drug uptake (Muscle tissue [30]): 4.18 % ID/g | Ratio (Nucleic Acid [31]): 1.09 | Ratio (Nucleic Acid [32]): 1.3 | Drug uptake (Stomach [33]): 3.64 % ID/g | Drug uptake (Kidney [34]): 2.23 % ID/g | Drug uptake (Kidney [35]): 5.2 % ID/g | Drug uptake (Mus musculus [36]): 1.87 % ID/g | Drug uptake (Heart [37]): 2.52 % ID/g | Drug uptake (Kidney [38]): 3.99 % ID/g | Drug uptake (Blood [39]): 3.61 % ID/g | Drug uptake (Stomach [40]): 11.87 % ID/g | Drug uptake (Stomach [41]): 4.44 % ID/g | Stability [42]: Stable | Drug uptake (Spleen [43]): 2.39 % ID/g | Drug uptake (Spleen [44]): 4.5 % ID/g | Ratio (Nucleic Acid [45]): 2.71 | Drug uptake (Muscle tissue [46]): 5.12 % ID/g | Drug uptake (Brain [47]): 1.98 % ID/g | Drug uptake (Kidney [48]): 14.25 % ID/g | Ratio (Nucleic Acid [49]): 1.64 | Stability (Plasma): Stable | logP [50]: 0.39 | Drug uptake (Mus musculus [51]): 5.51 % ID/g | Drug uptake (Liver [52]): 2.58 % ID/g | Drug uptake (Brain [53]): 2.94 % ID/g | Drug uptake (Liver [54]): 4.22 % ID/g | Ratio (Nucleic Acid [55]): 0.27
